# Data as given in US20170151278A1, “T[…] RELEASING SYSTEM” (priority 2014, published 2017).
# What was measured:
# [1] = CO release from CORM-2 suspension, amperometric detection in a sealed flask, triggered by Na2SO3; format: physicochemical
# Description: An Erlenmeyer flask purchased from Gebr. Rettberg (Gottingen, Germany) was used as reaction space. For insertion of the CO sensor and to seal the reaction space, a conically tapered joint from Schott Medica (Wertheim, Germany) was equipped with a glass guide tube for an electric wire. As a prerequisite for cross referencing with calibration gas, a single-bore stopcock was connected to the Erlenmeyer flask as well as to the conically tapered joint. The integrated CO sensor of the “Ei207D” CO detector (Ei Electronics, Shannon, Ireland) was removed and externally connected using a “Wire Wrap” 0.404 mm^2 wire (Kabeltronik, Denkendorf, Germany) linked with a 1.3 mm accessory shoe (Vogt AG, Lostorf, Switzerland). The wire was glued into the guide tube with “UHU plus endfest” epoxide resin (UHU, Bũhl, Germany) to seal the system. On-line videos were collected monitoring the detector with USB webcams with the Eyeline video surveillance software (NCH Software, Canberra, Australia).
# The CO release from CORM-2 was triggered by Na2SO3 and amperiometrically detected. For that, 4.3 mg CORM-2 were placed in the Erlenmeyer flask filled with 15 ml Millipore water and stirred at 130 rpm (Variomag Telesystem, Thermo Scientific, MA). After 25 minutes, 10 mg Na2SO3 were added to the reaction space. CO release in ppm as read from the detector of each system was calibrated with 100 ppm CO calibration gas (diluted in air; from Real Gas (Martinsried, Germany) and normalized, accordingly (see FIG. 1 for results).
# A concentration series of CO was generated by transferring different amounts of CORM-2 into 25 mL of a stirred (130 rpm) 333 mg/L aqueous Na2SO3 solution. CO release [ppm] after 60-80 minutes was plotted against the amount of CORM-2 [mg] placed into the system. Following this procedure, CO release [ppm] is expressed as amount of CORM-2 [mg], with one CORM-2 equivalent being defined as the amount of CO released per milligram CORM-2 after 60-80 minutes and when exposed to the experimental conditions described in this section (see FIG. 2B for results). CO release from CORM-2 expressed in CORM-2 equivalents [mg] followed a linear pattern (y=0.0192+1.0199x; r^2>0.99; n=1 for 14 independent measurements).
# CO data reported in the example is calculated from the corresponding release from CORM-2 equivalents and if reported for CORM-A1, calculated using linear regression. […] Therefore, CO loss by and from the system was quantified and basis for data correction. For the correction, the loss by and from the system was recorded and added to the data as read from the detector (vide infra). For assessment of CO loss and data correction, CO was generated from CORM-2 in presence of Na2SO3 with stirring at 130 rpm, until reaching a value of approximately 800 ppm. At this point the stirring was stopped. CO loss [ppm] was recorded when a value of 720 ppm was reached and followed an exponential decline (y=717.5*e−0.145x; r^2>0.99; n=5; see FIGS. 3A and 3B for results).
# [2] = CO release from CORM-2 suspension in Na2SO3 solution as a function of ionic strength; format: physicochemical; conditions: n=3
# Description: Experiments assessing the impact of the release medium on CO release (see FIG. 5A, 5B) were done in comparison to control experiments, within which 12 mg coated Na2SO3 crystals were measured in simulated gastric fluid without enzymes to control for possible detector interference with sulfites (interference was not observed with these experimental conditions; data not shown). Experiments assessing the impact of the coating procedure on CO release were done in comparison to control experiments, within which 3 mg CORM-2 was suspended in 25 mL of 0.333 g/L Na2SO3 solution (see FIG. 6 for results). In another set of control experiments, the impact of the ionic strength of the release medium and the impact of the salt with which the ionic strength was set (using sodium chloride solutions to set ionic strengths of 0.88 mol/L and 1.8 mol/L, respectively, and magnesium chloride to set an ionic strengths of 1.26 mol/L) on CO release was studied using CORM-2 suspensions. For that, CORM-2 was exposed to 25 mL of 0.333 g/L Na2SO3 in the appropriate release medium (for results, see FIG. 7).
compound,measurement,setting,value
"[C-]#[O+].[C-]#[O+].[C-]#[O+].[C-]#[O+].[C-]#[O+].[C-]#[O+].[Cl][Ru][Cl].[Cl][Ru][Cl] [CORM-2, Tricarbonyldichlororuthenium(II) dimer]",CO release of CORM-2 suspended in water,"[1]; 4.3 mg CORM-2 in 15 ml water, before Na2SO3 was added",no detectable CO release
same,time to complete CO release after Na2SO3 was added,[1]; 10 mg Na2SO3 added after 25 min,≤ 25 min
same,CO release reached within the time frame,"[1]; 60-80 minutes in 25 mL of 333 mg/L aqueous Na2SO3, stirred at 130 rpm",> 90%
same,time to half maximal CO release,"[1]; CORM-2 suspension control, 3 mg in 25 mL of 0.333 g/L Na2SO3",20 min
same,CO release plateau,"[1]; after 40 minutes, Na2SO3 triggered",550 ppm
same,time at which CO release plateaus (corrected data),"[1]; sulfite triggered, corrected for CO loss",approximately 140 minutes
same,reduction of CO release,"[2]; ionic strength 0.88 mol/L set with NaCl, compared with 0.008 mol/L",26±9%
same,reduction of CO release,[2]; ionic strength 1.26 mol/L set with MgCl2,50±3%
same,reduction of CO release,[2]; ionic strength 1.8 mol/L set with NaCl,53±6%
